Results reported in patent US9140689B2, “Methods of determining susceptibility of tumors to tyrosine kinase inhibitors” (Translational Genomics Research Institute, priority 2010, dated 2015).

Tests used:
Format in all cases: cell-based, murine
[1] = test system: BaF3/FGFR2b N550K mutation variant cells; experiment: BaF3/FGFR2b cell viability (ViaLight assay), N550K variant
Description: (§1) The BaF3 cell line is an IL-3 dependent murine pro-B cell line that is commonly employed to model TKI resistant mutations. BaF3 cells are made dependent on a specific oncogenic tyrosine kinase, and are cultured in the presence of a kinase inhibitor against that specific kinase, and resistant colonies can be screened for drug resistant mutations. This approach effectively reproduced the pattern and relative abundance of Bcr-Abl mutations seen clinically in imatinib-resistant patients (Von Bubnoff, N. et al, Blood. 2005 105:1652-1659)
(§2) BaF3/FGFR2b wildtype and N550K mutation variant cells were plated at a density of 10,000 cells/well in a 96-well plate. […] (Selleck Chemicals) or PD173074 (Calbiochem) was added in half-log dilutions in the absence of IL3 and in the presence of 1 nM FGF10 and 5 μg/mL heparin. After 72 hours, cell viability was measured using the ViaLight assay from Lonza (Visp, CH). The IC50 values shown in FIG. 1 were normalized to DMSO control and data were analyzed with Prism software. […].

[2] = test system: BaF3/FGFR2b wildtype cells; experiment: BaF3/FGFR2b cell viability (ViaLight assay), wildtype; conditions: Mus musculus, BaF3, 72 h, read-out: IC50 value in BaF3/FGFR2b wildtype
Description: as §1, §2

[3] = test system: BaF3/FGFR2b E719G mutation variant cells; experiment: BaF3/FGFR2b TKI resistance test, E719G variant alone
Excerpt: Genomic DNA was isolated from the BaF3.FGFR2b colonies selected in the […]-resistance screen. Exons encoding the intracellular domain of FGFR2b were amplified and sequencing performed in two directions. Mutations in the intracellular domain of FGFR2b were identified in 26 of the 63 (41%) […] resistant BaF3.FGFR2b clones. Among the 26 FGFR2b mutations, eleven different mutation variants were detected (Table 1). The eleven different mutation variants are: M536I, M538I, I548V, N550H, N550K, N550S, V565I, E566G, L618M, E719G, and Y770IfsX14. The most commonly mutated codon was N550, with mutations occurring in 19 of the 26 (73%) resistant clones. In addition, E719G mutation variant was identified in a clone with a N550H mutation; […]. Similar tests were performed with the other 10 FGFR2b mutation variants. The majority of the mutations identified in this drug resistance screen result in activation of FGFR2. […]. The FGFR2 mutations resistance to another TKI PD173074 were also tested. […] The receptor activation of FGFR2 mutants and wildtype were measured and compared in the presence of FGF ligand. […]

Compound: CCN(CC)CCCCNc1ncc2cc(-c3cc(OC)cc(OC)c3)c(NC(=O)NC(C)(C)C)nc2n1 [PD173074]
- fold difference of IC50, N550K versus wildtype ([1]; BaF3/FGFR2b N550K vs wildtype): over 170 fold
- IC50 ([1]; Mus musculus, BaF3, 72 h, read-out: IC50 value in N550K resistance cells): 776 nM
- IC50 [2]: 4.5 nM
- resistance conferred by E719G mutation alone [3]: did not induce resistance
